# Assay results reported in ChEMBL document CHEMBL3885881, “DrugMatrix”.
# Organism: Rattus norvegicus
# Assay: DrugMatrix - Regimen: Daily Repeat
# Assay type: toxicity, organism-based, Sprague-Dawley
# Set-up: regimen Daily Repeat, gender Male, age 6-8 weeks
# Conditions: in vivo, po, route oral GAVAGE, vehicle 100 % WATER; for ABSOLUTE BASOPHIL / ABSOLUTE EOSINOPHIL / ABSOLUTE LYMPHOCYTE / ABSOLUTE MONOCYTE / ABSOLUTE SEGMENTED NEUTROPHIL / BASOPHIL / EOSINOPHIL / ERYTHROCYTE COUNT / HEMATOCRIT / HEMOGLOBIN / LEUKOCYTE COUNT / LYMPHOCYTE / MEAN CORPUSCULAR HEMOGLOBIN / MEAN CORPUSCULAR HEMOGLOBIN CONCENTRATION / MEAN CORPUSCULAR VOLUME / MONOCYTE / NEUTROPHIL / NUCLEATED RED BLOOD CELLS / PLATELET COUNT: tissue Blood; for ALANINE AMINOTRANSFERASE / ALBUMIN / ALKALINE PHOSPHATASE / ASPARTATE AMINOTRANSFERASE / BLOOD UREA NITROGEN / CARBON DIOXIDE / CHLORIDE / CHOLESTEROL / CREATINE PHOSPHOKINASE / CREATININE / GLUCOSE / LACTATE DEHYDROGENASE / LIPASE / PHOSPHORUS / POTASSIUM / SODIUM / TOTAL BILIRUBIN / TOTAL PROTEIN / URIC ACID: tissue Plasma
# [1] = 0 mg/kg, 72 h, dose level Control, time 3 day
# [2] = 0 mg/kg, 120 h, dose level Control, time 5 day
# [3] = 19.5 mg/kg, 72 h, dose level Low, time 3 day
smiles,measurement,setting,value
CN1CCC[C@H]1c1cccnc1 [NICOTINE],ABSOLUTE BASOPHIL,[1],0 CELLS/uL
same,ABSOLUTE EOSINOPHIL,[1],0 CELLS/uL
same,ABSOLUTE LYMPHOCYTE,[1],10386.33 CELLS/uL
same,ABSOLUTE MONOCYTE,[1],88.5 CELLS/uL
same,ABSOLUTE SEGMENTED NEUTROPHIL,[1],1008.5 CELLS/uL
same,BASOPHIL,[1],0%
same,EOSINOPHIL,[1],0%
same,ERYTHROCYTE COUNT,[1],5.16 x10E6/uL
same,HEMATOCRIT,[1],32.43%
same,HEMOGLOBIN,[1],12.98 G/DL
same,LEUKOCYTE COUNT,[1],11.48 x10E3/uL
same,LYMPHOCYTE,[1],92.33%
same,MEAN CORPUSCULAR HEMOGLOBIN,[1],25.23 pg
same,MEAN CORPUSCULAR HEMOGLOBIN CONCENTRATION,[1],40.08 G/DL
same,MEAN CORPUSCULAR VOLUME,[1],62.95 fL
same,MONOCYTE,[1],0.67%
same,NEUTROPHIL,[1],7%
same,NUCLEATED RED BLOOD CELLS,[1],0 /100WBC
same,PLATELET COUNT,[1],1016.67 x10E3/uL
same,ALANINE AMINOTRANSFERASE,[1],62.17 u/L
same,ALBUMIN,[1],3.95 G/DL
same,ALKALINE PHOSPHATASE,[1],363.5 u/L
same,ASPARTATE AMINOTRANSFERASE,[1],118 u/L
same,BLOOD UREA NITROGEN,[1],14.5 mg/dL
same,CARBON DIOXIDE,[1],22.83 mmol/L
same,CHLORIDE,[1],100.67 MEQ/L
same,CHOLESTEROL,[1],66 mg/dL
same,CREATINE PHOSPHOKINASE,[1],1308.83 u/L
same,CREATININE,[1],0.22 mg/dL
same,GLUCOSE,[1],187.5 mg/dL
same,LACTATE DEHYDROGENASE,[1],380.17 u/L
same,LIPASE,[1],16.17 u/L
same,PHOSPHORUS,[1],14.27 mg/dL
same,POTASSIUM,[1],6.8 MEQ/L
same,SODIUM,[1],142.53 MEQ/L
same,TOTAL BILIRUBIN,[1],0.2 mg/dL
same,TOTAL PROTEIN,[1],5.68 G/DL
same,URIC ACID,[1],2.87 mg/dL
same,ABSOLUTE BASOPHIL,[2],0 CELLS/uL
same,ABSOLUTE EOSINOPHIL,[2],80 CELLS/uL
same,ABSOLUTE LYMPHOCYTE,[2],13301.33 CELLS/uL
same,ABSOLUTE MONOCYTE,[2],180.83 CELLS/uL
same,ABSOLUTE SEGMENTED NEUTROPHIL,[2],1187.83 CELLS/uL
same,BASOPHIL,[2],0%
same,EOSINOPHIL,[2],0.5%
same,ERYTHROCYTE COUNT,[2],5.54 x10E6/uL
same,HEMATOCRIT,[2],35.65%
same,HEMOGLOBIN,[2],14.22 G/DL
same,LEUKOCYTE COUNT,[2],14.75 x10E3/uL
same,LYMPHOCYTE,[2],90.67%
same,MEAN CORPUSCULAR HEMOGLOBIN,[2],25.65 pg
same,MEAN CORPUSCULAR HEMOGLOBIN CONCENTRATION,[2],39.88 G/DL
same,MEAN CORPUSCULAR VOLUME,[2],64.35 fL
same,MONOCYTE,[2],1%
same,NEUTROPHIL,[2],7.83%
same,NUCLEATED RED BLOOD CELLS,[2],0.17 /100WBC
same,PLATELET COUNT,[2],1285.33 x10E3/uL
same,ALANINE AMINOTRANSFERASE,[2],51.67 u/L
same,ALBUMIN,[2],4.08 G/DL
same,ALKALINE PHOSPHATASE,[2],391.5 u/L
same,ASPARTATE AMINOTRANSFERASE,[2],99.5 u/L
same,BLOOD UREA NITROGEN,[2],15.5 mg/dL
same,CARBON DIOXIDE,[2],28.33 mmol/L
same,CHLORIDE,[2],101.83 MEQ/L
same,CHOLESTEROL,[2],67.83 mg/dL
same,CREATINE PHOSPHOKINASE,[2],771.33 u/L
same,CREATININE,[2],0.23 mg/dL
same,GLUCOSE,[2],156.5 mg/dL
same,LACTATE DEHYDROGENASE,[2],544.33 u/L
same,LIPASE,[2],10.17 u/L
same,PHOSPHORUS,[2],12.03 mg/dL
same,POTASSIUM,[2],6.81 MEQ/L
same,SODIUM,[2],144.13 MEQ/L
same,TOTAL BILIRUBIN,[2],0.22 mg/dL
same,TOTAL PROTEIN,[2],6 G/DL
same,URIC ACID,[2],2.18 mg/dL
same,ABSOLUTE BASOPHIL,[3],0 CELLS/uL
same,ABSOLUTE EOSINOPHIL,[3],274 CELLS/uL
same,ABSOLUTE LYMPHOCYTE,[3],12164.33 CELLS/uL
same,ABSOLUTE MONOCYTE,[3],176.67 CELLS/uL
same,ABSOLUTE SEGMENTED NEUTROPHIL,[3],1085 CELLS/uL
same,BASOPHIL,[3],0%
same,EOSINOPHIL,[3],2%
same,ERYTHROCYTE COUNT,[3],5.66 x10E6/uL
same,HEMATOCRIT,[3],36.1%
same,HEMOGLOBIN,[3],14.13 G/DL
same,LEUKOCYTE COUNT,[3],13.7 x10E3/uL
same,LYMPHOCYTE,[3],88.67%
same,MEAN CORPUSCULAR HEMOGLOBIN,[3],24.97 pg
same,MEAN CORPUSCULAR HEMOGLOBIN CONCENTRATION,[3],39.17 G/DL
same,MEAN CORPUSCULAR VOLUME,[3],63.73 fL
same,MONOCYTE,[3],1.33%
same,NEUTROPHIL,[3],8%
same,NUCLEATED RED BLOOD CELLS,[3],0 /100WBC
same,PLATELET COUNT,[3],1341.67 x10E3/uL
same,ALANINE AMINOTRANSFERASE,[3],53.67 u/L
same,ALBUMIN,[3],4.07 G/DL
same,ALKALINE PHOSPHATASE,[3],372.67 u/L
same,ASPARTATE AMINOTRANSFERASE,[3],86.33 u/L
same,BLOOD UREA NITROGEN,[3],14 mg/dL
same,CARBON DIOXIDE,[3],22 mmol/L
same,CHLORIDE,[3],103 MEQ/L
same,CHOLESTEROL,[3],69 mg/dL
same,CREATINE PHOSPHOKINASE,[3],441.67 u/L
same,CREATININE,[3],0.28 mg/dL
same,GLUCOSE,[3],182.33 mg/dL
same,LACTATE DEHYDROGENASE,[3],226.33 u/L
same,LIPASE,[3],10.67 u/L
same,PHOSPHORUS,[3],12.5 mg/dL
same,POTASSIUM,[3],5.92 MEQ/L
same,SODIUM,[3],144.87 MEQ/L
same,TOTAL BILIRUBIN,[3],0.2 mg/dL
same,TOTAL PROTEIN,[3],5.77 G/DL
same,URIC ACID,[3],1.67 mg/dL
